Experimental data reported in ChEMBL document CHEMBL3994661, “Mycobacterium tuberculosis chorismate mutase: A potential target for TB” (Bioorg Med Chem, 2017).
In brackets after ≈: the same amount, converted by molar mass.

Legend:
Escherichia coli [1] = test: Inhibition of Escherichia coli chorismate mutase assessed as ratio of I50 to chorismate Km
[2] = system: Mycobacterium tuberculosis; test: Inhibition of Mycobacterium tuberculosis chorismate mutase expressed in Escherichia coli BL21 (DE3) assessed as reduction in conversion of chorismate to prephenate at 30 uM using chorismic acid as substrate after 5 mins by spectrophotometric method relative to control
[3] = Inhibition of Mycobacterium tuberculosis chorismate mutase assessed as reduction in conversion of chorismate to prephenate using chorismate as substrate after 1 to 5 mins
Escherichia coli [4] = test: Inhibition of Escherichia coli chorismate mutase assessed as ratio of IC50 to chorismate Km
[5] = Inhibition of Mycobacterium tuberculosis H37Rv chorismate mutase assessed as reduction in conversion of chorismate to prephenate using chorismic acid as substrate by spectrophotometric method
[6] = Inhibition of Escherichia coli chorismate mutase
[7] = system: Mycobacterium tuberculosis; test: Antibacterial activity against Mycobacterium tuberculosis H37Rv after 7 days by microplate alamar blue assay; format: functional; conditions: 168 h
[8] = Inhibition of Mycobacterium tuberculosis chorismate mutase assessed as reduction in conversion of chorismate to prephenate using chorismic acid as substrate after 5 mins by spectrophotometric method
[9] = Competitive inhibition of Bacillus subtilis chorismate mutase using varying levels of chorismic acid as substrate
[10] = Competitive inhibition of Escherichia coli chorismate mutase using varying levels of chorismic acid as substrate by Lineweaver-burk plot method

SMILES: O=C(O)C1CC2CC(C(=O)O)(C=CC2O)C1 (stereo in doubt; 17) [listing 1 of 2 here]
- Ratio (Escherichia coli [1]): 5.6

SMILES: CC(=O)c1c(C(C)(C)C)[nH]c2c(S(C)(=O)=O)cc(Cl)cc12
- inhibition [2]: 45%

SMILES: Cc1ccc(C(C)C)cc1O [CARVACROL]
- IC50 [3]: 1.06 µM

SMILES: O=C1OC2CC3(C(=O)O)CC1N1C(C3)C21 (stereo not given)
- Ratio (Escherichia coli [4]): 42

SMILES: CCOC(=O)C1=C(C)NC(=O)N[C@H]1c1ccccc1C#CCCO
- IC50 [5]: 14.8 µM

SMILES: O=C(O)C12CC3CC(C(=O)O)(C1)C2CC3O (stereo not given)
- IC50 [6]: 500 µM
- Ratio (Escherichia coli [1]): 5.6

SMILES: O=C(O)C1CC2(C(=O)O)C=CC(O)C(C2)N1 (stereo in doubt; 22)
- Ratio (Escherichia coli [4]): 1.2

SMILES: O=C(O)C1CC2CC(C(=O)O)(C=CC2O)C1 (stereo in doubt; 17) [listing 2 of 2 here]
- IC50 [6]: 500 µM

SMILES: O=C1Nc2ccccc2/C1=C/c1ccc([N+](=O)[O-])cc1
- MIC [7]: 23.5 µM (≈ 6.26 µg/mL)
- IC50 [8]: 1.01 µM

SMILES: O=C(O)C1CC2CC(C(=O)O)(C=CC2O)C1 (stereo in doubt; 16) [listing 1 of 2 here]
- Ratio (Escherichia coli [1]): 4.8

SMILES: O=C(O)C1CC2(C(=O)O)C=CC(O)C(C2)O1 (stereo not given)
- Ratio (Escherichia coli [4]): 0.007

SMILES: O=C(O)C1CC2(C(=O)O)C=CC3C(C2)N13 (stereo not given)
- Ratio (Escherichia coli [4]): > 20

SMILES: O=C(O)C1CC2([N+](=O)[O-])C=CC(O)C(C2)O1 (stereo not given)
- Ki [9]: 0.3 µM

SMILES: O=C(O)C1CC2CC(C(=O)O)(C=CC2O)C1 (stereo in doubt; 16) [listing 2 of 2 here]
- IC50 [6]: 430 µM

SMILES: O=C1Nc2ccccc2C1=O [ISATIN]
- MIC [7]: 340 µM (≈ 50 µg/mL)

SMILES: O=C(O)C1CC2(C(=O)O)C=CC(O)C(C2)N1 (stereo in doubt; 23)
- Ratio (Escherichia coli [4]): 18

SMILES: O=C(O)c1cccc([N+](=O)[O-])c1-c1c(C(=O)O)cccc1[N+](=O)[O-]
- Ki [10]: 13 µM

SMILES: O=C1OC2CC3(C(=O)O)CC1NC(C3)C2O (stereo not given)
- Ratio (Escherichia coli [4]): > 50
